5 compounds from patent publication US9499550B2 (BRISTOL-MYERS SQUIBB COMPANY, priority 2012, dated 2016) can be followed below.

Test [1] deals with HCV genotype 1a (H77 strain) replicon in HUH-7 cells. Description: HCV replicon luciferase reporter assay, genotype 1a. In kind it is cell-based. The following applies: Hepatitis C virus, Huh-7, 72 h, HCV genotype 1a replicon luciferase, 3 days incubation, read-out: LE_1a (EC50, range). The method in brief:
(§1)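 Replicon inhibition for both genotypes was measured as Renilla luciferase signal (EnduRen, 7.5 μM final, 2 h) after 3-day, 37° C exposure of replicon-bearing HUH-7 cells in 4% FCS DMEM, 0.5% DMSO. The 1b construct carries S1179I; the 1a H77 construct carries P1496L and S2204I. Twenty-point, 3-fold dilutions were fitted four-parametrically for EC50, and CC50 was taken from multiplexed Cell Titer-Blue.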
For orientation: In antiviral work, replicon cells carry a viral genome segment that copies itself.

For test [2], the system named is HCV genotype 1b (Con1) replicon in HUH-7 cells. Description: HCV replicon luciferase reporter assay, genotype 1b. As to conditions: Hepatitis C virus, Huh-7, 72 h, HCV genotype 1b replicon luciferase, 3 days incubation, read-out: LE_1b (EC50, range). In kind it is cell-based. The method in brief: as §1

As for `COc1ccc2c(O[C@@H]3C[C@H]4C(=O)N[C@]5(C(=O)NS(=O)(=O)C6CC6)C[C@H]5/C=C\CC[C@H](C)C[C@@H](C)[C@H](NC(=O)OC(C)(C)C)C(=O)N4C3)nc(-c3ccc(OC(C)C)cn3)cc2c1` [Compound 5200, tert-butyl ((2R,6S,7R,9S,13aS,14aR,16aS,Z)-14a-((cyclopropylsulfonyl)carbamoyl)-2-((3-(5-isopropoxypyridin-2-yl)-6-methoxyisoquinolin-1-yl)oxy)-7,9-dimethyl-5,16-dioxo-1,2,3,5,6,7,8,9,10,11,13a,14,14a,15,16,16a-hexadecahydrocyclopropa[e]pyrrolo[1,2-a][1,4]diazacyclopentadecin-6-yl)carbamate], the EC50 in test [1] and in test [2] was below 5.46 nM throughout.

On to `COc1ccc2c(O[C@@H]3C[C@H]4C(=O)N[C@]5(C(=O)NS(=O)(=O)C6CC6)C[C@H]5/C=C\CC[C@@H](C)C[C@@H](C)[C@H](NC(=O)OC(C)(C)C)C(=O)N4C3)nc(-c3ccc(OC(C)C)cn3)cc2c1` [Compound 5201, tert-butyl ((2R,6S,7R,9R,13aS,14aR,16aS,Z)-14a-((cyclopropylsulfonyl)carbamoyl)-2-((3-(5-isopropoxypyridin-2-yl)-6-methoxyisoquinolin-1-yl)oxy)-7,9-dimethyl-5,16-dioxo-1,2,3,5,6,7,8,9,10,11,13a,14,14a,15,16,16a-hexadecahydrocyclopropa[e]pyrrolo[1,2-a][1,4]diazacyclopentadecin-6-yl)carbamate], for which the EC50 in test [1] and in test [2] was below 5.46 nM each time.

Turning to `COc1ccc2c(O[C@@H]3C[C@H]4C(=O)N[C@]5(C(=O)NS(=O)(=O)C6CC6)C[C@H]5/C=C\CC[C@H](C)C[C@@H](C)[C@H](NC(=O)OC(C)(C)C(F)(F)F)C(=O)N4C3)nc(-c3ccc(OC(C)C)cn3)cc2c1` [Compound 5202, 1,1,1-trifluoro-2-methylpropan-2-yl((2R,6S,7R,9S,13aS,14aR,16aS,Z)-14a-((cyclopropylsulfonyl)carbamoyl)-2-((3-(5-isopropoxypyridin-2-yl)-6-methoxyisoquinolin-1-yl)oxy)-7,9-dimethyl-5,16-dioxo-1,2,3,5,6,7,8,9,10,11,13a,14,14a,15,16,16a-hexadecahydrocyclopropa[e]pyrrolo[1,2-a][1,4]diazacyclopentadecin-6-yl)carbamate], the EC50 in test [1] and in test [2] was below 5.46 nM in each case.

With `COc1ccc2c(O[C@@H]3C[C@H]4C(=O)N[C@]5(C(=O)NS(=O)(=O)C6CC6)C[C@H]5/C=C\CC[C@@H](C)C[C@@H](C)[C@H](NC(=O)OC(C)(C)C(F)(F)F)C(=O)N4C3)nc(-c3ccc(OC(C)C)cn3)cc2c1` [Compound 5203, 1,1,1-trifluoro-2-methylpropan-2-yl((2R,6S,7R,9R,13aS,14aR,16aS,Z)-14a-((cyclopropylsulfonyl)carbamoyl)-2-((3-(5-isopropoxypyridin-2-yl)-6-methoxyisoquinolin-1-yl)oxy)-7,9-dimethyl-5,16-dioxo-1,2,3,5,6,7,8,9,10,11,13a,14,14a,15,16,16a-hexadecahydrocyclopropa[e]pyrrolo[1,2-a][1,4]diazacyclopentadecin-6-yl)carbamate], the EC50 in test [1] and in test [2] was below 5.46 nM each time.

For the compound `[2H]C([2H])([2H])C(OC(=O)N[C@@H]1C(=O)N2C[C@H](Oc3nc(-c4ccc(OC(C)C)cn4)cc4cc(OC)ccc34)C[C@H]2C(=O)N[C@]2(C(=O)NS(=O)(=O)C3CC3)C[C@H]2/C=C\CC[C@H](C)C[C@H]1C)(C([2H])([2H])[2H])C(F)(F)F` [Compound 5204, 1,1,1,3,3,3-hexadeutero-2-(trifluoromethyl)propan-2-yl((2R,6S,7R,9S,13aS,14aR,16aS,Z)-14a-((cyclopropylsulfonyl)carbamoyl)-2-((3-(5-isopropoxypyridin-2-yl)-6-methoxyisoquinolin-1-yl)oxy)-7,9-dimethyl-5,16-dioxo-1,2,3,5,6,7,8,9,10,11,13a,14,14a,15,16,16a-hexadecahydrocyclopropa[e]pyrrolo[1,2-a][1,4]diazacyclopentadecin-6-yl)carbamate], the EC50 in test [1] and in test [2] was below 5.46 nM throughout.
